# Results as given in ChEMBL document CHEMBL3124810, “Synthesis and biological evaluation of novel benzamide derivatives as potent smoothened antagonists” (Bioorg Med Chem Lett, 2014).
# Active and inactive are the calls of the source. The calls are words filed in the database; no cut-off is given here.
# Tests used:
# Protein smoothened [1] = biological target: T1, Protein smoothened (Homo sapiens, UniProt Q99835); test: Antagonist activity at smoothened (unknown origin) expressed in mouse Shh Light2 cells co-expressing Gli-dependent reporter gene assessed as inhibition of Shh signaling at 2 uM by dual luciferase reporter gene assay; assay type: functional, cell-based; details: Shh Light II
# T1 sequence (Q99835 whole entry): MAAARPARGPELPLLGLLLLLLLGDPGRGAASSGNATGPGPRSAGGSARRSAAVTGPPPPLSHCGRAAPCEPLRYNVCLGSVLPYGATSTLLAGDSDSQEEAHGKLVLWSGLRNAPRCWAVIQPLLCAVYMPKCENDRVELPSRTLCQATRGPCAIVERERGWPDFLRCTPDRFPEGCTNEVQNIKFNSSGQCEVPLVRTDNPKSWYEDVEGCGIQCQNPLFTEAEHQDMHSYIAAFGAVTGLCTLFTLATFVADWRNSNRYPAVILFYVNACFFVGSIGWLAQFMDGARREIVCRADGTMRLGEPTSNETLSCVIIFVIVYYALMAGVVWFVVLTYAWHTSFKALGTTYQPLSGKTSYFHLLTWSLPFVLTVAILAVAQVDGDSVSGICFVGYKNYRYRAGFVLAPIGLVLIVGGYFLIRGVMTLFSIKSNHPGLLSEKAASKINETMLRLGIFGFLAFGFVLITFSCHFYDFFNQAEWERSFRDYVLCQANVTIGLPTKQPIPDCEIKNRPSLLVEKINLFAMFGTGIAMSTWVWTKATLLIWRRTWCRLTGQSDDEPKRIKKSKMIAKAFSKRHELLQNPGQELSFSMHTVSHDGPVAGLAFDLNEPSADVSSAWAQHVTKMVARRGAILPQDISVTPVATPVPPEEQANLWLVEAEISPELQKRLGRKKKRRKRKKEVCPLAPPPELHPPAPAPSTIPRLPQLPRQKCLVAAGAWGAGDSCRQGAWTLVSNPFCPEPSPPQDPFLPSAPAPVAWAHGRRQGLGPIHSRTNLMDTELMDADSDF
# [2] = Inhibition of Hedgehog signaling in mouse NIH/3T3 cells assessed as down regulation of mPTCH1 mRNA expression at 10 uM; assay type: cell-based; details: NIH3T3
# HCT-116 = test: Antiproliferative activity against human HCT116 cells assessed as growth inhibition at 10 uM after 48 hrs by MTT assay; assay type: functional, cell-based
# [3] = Inhibition of hedgehog signaling in mouse MSC cells assessed as down regulation of alkaline phosphatase at 20 to 80 uM; assay type: cell-based
# Daoy = test: Antiproliferative activity against human DaOY cells assessed as growth inhibition at 10 uM after 48 hrs by MTT assay; assay type: functional, cell-based
# Danio rerio = species: Danio rerio; test: Antagonist activity at smoothened in zebrafish embryo assessed as reduction in Gli-dependent RFP expression compound treated at 20 to 80 uM at 2 hrs post fertilization measured 36 hrs post fertilization
# SW1353 = test: Antiproliferative activity against human SW1353 cells assessed as growth inhibition at 10 uM after 48 hrs by MTT assay; assay type: functional, cell-based
# A549 = test: Antiproliferative activity against human A549 cells assessed as growth inhibition at 10 uM after 48 hrs by MTT assay; assay type: functional, cell-based
# Protein smoothened [4] = biological target: T1, Protein smoothened; test: Antagonist activity at smoothened (unknown origin) expressed in mouse Shh Light2 cells co-expressing Gli-dependent reporter gene assessed as inhibition of Shh signaling at 0.5 uM by dual luciferase reporter gene assay; assay type: functional, cell-based; details: Shh Light II
# Protein smoothened [5] = biological target: T1, Protein smoothened; test: Antagonist activity at smoothened (unknown origin) expressed in mouse Shh Light2 cells co-expressing Gli-dependent reporter gene assessed as inhibition of Hh signaling by dual luciferase reporter gene assay; assay type: functional, cell-based, Shh Light II
# Protein smoothened [6] = biological target: T1, Protein smoothened; test: Displacement of BODIPY-cyclopamine from human SMO cyclopamine-binding site expressed in HEK293 cells at 10 to 100 nM after 4 hrs by Hoechst 33342 staining-based assay; assay type: cell-based
# Protein smoothened [7] = biological target: T1, Protein smoothened; test: Displacement of BODIPY-cyclopamine from human SMO cyclopamine-binding site expressed in HEK293 cells at 50 to 200 nM after 4 hrs by Hoechst 33342 staining-based assay; assay type: cell-based
smiles,measurement,setting,value
CS(=O)(=O)c1ccc(C(=O)Nc2ccc(Cl)c(NC(=O)c3ccccn3)c2)c(Cl)c1,inhibition,Protein smoothened [1],53.2%
CS(=O)(=O)c1ccc(C(=O)Nc2ccc(Cl)c(-c3ccccn3)c2)c(Cl)c1,inhibition,[2],Active
same,growth inhibition (GI),HCT-116,Active
same,inhibition,[3],Active
same,growth inhibition (GI),Daoy,Active
same,inhibition,Danio rerio,Active
same,growth inhibition (GI),SW1353,Active
same,growth inhibition (GI),A549,Active
Cc1ccccc1NC(=O)c1cc(NC(=O)c2ccc(S(C)(=O)=O)cc2Cl)ccc1Cl,inhibition,Protein smoothened [1],73%
CS(=O)(=O)c1ccc(C(=O)Nc2ccc(Cl)c(C(=O)Nc3cc(Cl)cc(Cl)c3)c2)c(Cl)c1,inhibition,Protein smoothened [1],46.6%
Cc1cc(C)cc(NC(=O)c2cc(NC(=O)c3ccc(S(C)(=O)=O)cc3Cl)ccc2Cl)c1,inhibition,Protein smoothened [1],56.8%
CCOc1ccc(NC(=O)Nc2cc(NC(=O)c3ccc(S(C)(=O)=O)cc3Cl)ccc2Cl)cc1,inhibition,Protein smoothened [4],inactive
same,inhibition,Protein smoothened [1],66.1%
CS(=O)(=O)c1ccc(C(=O)Nc2ccc(Cl)c(C(=O)Nc3ccc(Cl)cc3Cl)c2)c(Cl)c1,inhibition,Protein smoothened [1],0%
COc1cc(OC)cc(C(=O)Nc2cc(NC(=O)c3ccc(S(C)(=O)=O)cc3Cl)ccc2Cl)c1,inhibition,Protein smoothened [1],3.6%
CS(=O)(=O)c1ccc(C(=O)Nc2ccc(Cl)c(NC(=O)Nc3ccc(Br)cc3F)c2)c(Cl)c1,inhibition,Protein smoothened [4],inactive
same,inhibition,Protein smoothened [1],55.4%
CS(=O)(=O)c1ccc(C(=O)Nc2ccc(Cl)c(NC(=O)Nc3ccc(C(F)(F)F)cc3Cl)c2)c(Cl)c1,IC50,Protein smoothened [5],300 nM
CCOc1ccc(NC(=O)c2cc(NC(=O)c3ccc(S(C)(=O)=O)cc3Cl)ccc2Cl)cc1,inhibition,Protein smoothened [1],70.4%
CS(=O)(=O)c1ccc(C(=O)Nc2ccc(Cl)c(C(=O)Nc3cccnc3)c2)c(Cl)c1,inhibition,Protein smoothened [1],72.9%
CS(=O)(=O)c1ccc(C(=O)Nc2ccc(Cl)c(NC(=O)c3ccc(Cl)s3)c2)c(Cl)c1,inhibition,Protein smoothened [1],51.4%
Cc1ccc(NC(=O)c2cc(NC(=O)c3ccc(S(C)(=O)=O)cc3Cl)ccc2Cl)cc1,inhibition,Protein smoothened [1],67.5%
CS(=O)(=O)c1ccc(C(=O)Nc2ccc(Cl)c(C(=O)Nc3cccc(O)c3)c2)c(Cl)c1,IC50,Protein smoothened [5],40 nM
same,inhibition,[2],Active
same,growth inhibition (GI),HCT-116,Active
same,inhibition,[3],Active
same,growth inhibition (GI),Daoy,Active
same,Activity,Protein smoothened [6],Active
same,inhibition,Danio rerio,Active
same,inhibition,Protein smoothened [1],72.2%
same,growth inhibition (GI),SW1353,Active
same,growth inhibition (GI),A549,Active
COc1ccc(NC(=O)Nc2cc(NC(=O)c3ccc(S(C)(=O)=O)cc3Cl)ccc2Cl)cc1,inhibition,Protein smoothened [4],inactive
same,inhibition,Protein smoothened [1],73.8%
CCc1ccccc1NC(=O)c1cc(NC(=O)c2ccc(S(C)(=O)=O)cc2Cl)ccc1Cl,inhibition,Protein smoothened [1],65.9%
Cc1cccc(NC(=O)c2cc(NC(=O)c3ccc(S(C)(=O)=O)cc3Cl)ccc2Cl)c1C,IC50,Protein smoothened [5],100 nM
same,Activity,Protein smoothened [7],Active
same,inhibition,Protein smoothened [1],76.3%
CS(=O)(=O)c1ccc(C(=O)Nc2ccc(Cl)c(NC(=O)c3cccc(C(F)(F)F)c3)c2)c(Cl)c1,inhibition,Protein smoothened [1],28.4%
CS(=O)(=O)c1ccc(C(=O)Nc2ccc(Cl)c(NC(=O)Nc3ccc(Cl)cc3)c2)c(Cl)c1,inhibition,Protein smoothened [4],inactive
same,inhibition,Protein smoothened [1],0%
CS(=O)(=O)c1ccc(C(=O)Nc2ccc(Cl)c(NC(=O)c3ccc(Cl)cn3)c2)c(Cl)c1,inhibition,Protein smoothened [1],30.5%
COc1ccc(NC(=O)c2cc(NC(=O)c3ccc(S(C)(=O)=O)cc3Cl)ccc2Cl)cc1,inhibition,Protein smoothened [1],69.8%
